Assays:
[1] = molecular target: T1, Orexin type 1 (OX1R) receptor (Homo sapiens, UniProt O43613); assay: In vitro orexin antagonism assay: intracellular calcium measurement (FLIPR), orexin-A 3 nM as agonist; format: cell-based; conditions: for IC50: first value of IC50/Kb cell; for Kb: second value of IC50/Kb cell; for inhibition at 1 µM: read-out: OX1R, % Inh. @ 1 uM
T1 construct: expressed in transfected cells; host or cells: CHO cells (G418 selection)
T1 sequence (O43613 1-425): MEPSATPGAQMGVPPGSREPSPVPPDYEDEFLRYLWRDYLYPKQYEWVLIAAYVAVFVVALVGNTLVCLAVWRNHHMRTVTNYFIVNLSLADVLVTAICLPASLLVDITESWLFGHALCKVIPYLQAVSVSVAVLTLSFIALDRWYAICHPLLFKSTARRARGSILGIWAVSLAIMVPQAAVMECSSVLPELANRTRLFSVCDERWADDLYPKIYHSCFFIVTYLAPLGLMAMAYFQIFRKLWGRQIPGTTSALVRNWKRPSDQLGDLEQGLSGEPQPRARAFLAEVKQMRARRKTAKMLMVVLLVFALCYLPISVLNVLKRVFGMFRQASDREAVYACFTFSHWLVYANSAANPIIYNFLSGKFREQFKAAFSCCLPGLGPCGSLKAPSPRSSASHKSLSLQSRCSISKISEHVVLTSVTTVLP
How it was run: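 CHO cells expressing the human orexin receptor were loaded with 3 μM fluo-4 AM plus 5 mM probenecid, then exposed to antagonist for 120 min before 3 nM orexin-A (final) was added on a FLIPR.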

[2] = molecular target: T2, human orexin-2 receptor (OX2R) (Homo sapiens, UniProt O43614); assay: as above; format: cell-based; conditions: for IC50: first value of IC50/Kb cell; for Kb: second value of IC50/Kb cell; for inhibition at 1 µM: read-out: OX2R, % Inh. @ 1 uM
T2 construct: expressed in transfected cells; host or cells: CHO cells (G418 selection)
T2 sequence (O43614 1-444): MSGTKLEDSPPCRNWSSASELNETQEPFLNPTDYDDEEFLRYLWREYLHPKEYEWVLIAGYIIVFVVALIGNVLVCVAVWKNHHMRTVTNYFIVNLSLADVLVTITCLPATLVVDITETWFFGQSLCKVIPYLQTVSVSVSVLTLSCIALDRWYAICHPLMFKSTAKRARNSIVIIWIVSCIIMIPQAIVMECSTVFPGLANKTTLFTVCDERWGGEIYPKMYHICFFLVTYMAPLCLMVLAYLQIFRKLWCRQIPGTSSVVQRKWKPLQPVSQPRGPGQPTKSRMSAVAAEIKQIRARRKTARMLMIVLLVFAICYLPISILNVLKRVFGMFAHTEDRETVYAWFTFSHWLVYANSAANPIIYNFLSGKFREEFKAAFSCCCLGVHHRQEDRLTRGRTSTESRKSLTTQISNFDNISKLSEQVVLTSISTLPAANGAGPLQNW
How it was run: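 CHO cells stably expressing human OX1R or OX2R, loaded with fluo-4 AM (3 μM, 5 mM probenecid) for 50 min at 37 °C, then 30 min at RT. Antagonist preincubated 120 min before 3 nM orexin-A; FLIPR fluorescence peak height vs vehicle gives IC50, possibly normalized to on-plate reference; geometric mean of repeats.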

[3] = molecular target: T3, human k-opioid receptor (kOR) (Homo sapiens, UniProt P41145); assay: Human k-opioid (KOP) receptor (agonist radioligand [3H]U-69593) binding assay, transfected RBL cell membranes; conditions: for IC50: first value of IC50/Ki cell; for Ki: second value of IC50/Ki cell; for inhibition at 1 µM: read-out: KOR % Inh. @ 1 uM
T3 construct: expressed in transfected cells; host or cells: RBL cells (membrane homogenates)
Procedure: Human k-Opioid (KOP) Receptor (Agonist Radioligand) Binding Assay
Purpose: Evaluation of the affinity of compounds for the human k-opioid receptor in transfected RBL cells determined in a radioligand binding assay.
Experimental protocol: Cell membrane homogenates (about 80 μg protein) are incubated for 60 min at 22° C. with 0.5 nM [3H]U-69593 in the absence or presence of the test compound in a buffer containing 50 mM Tris-HCl (pH 7.4), 10 mM MgCl2 and 1 mM EDTA. Nonspecific binding is determined in the presence of 10 μM naloxone. Following incubation, the samples are filtered rapidly under vacuum through glass fiber filters ([…], Packard) presoaked with 0.3% PEI and rinsed several times with ice-cold 50 mM Tris-HCl using a 96-sample cell harvester (Unifilter, Packard). The filters are dried then counted for radioactivity in a scintillation counter (Topcount, Packard) using a scintillation cocktail (Microscint 0, Packard). The results are expressed as a percent inhibition of the control radioligand specific binding. The standard reference compound is U-50488, which is tested in each experiment at several concentrations to obtain a competition curve from which its IC50 is calculated.

T3 sequence (P41145 whole entry): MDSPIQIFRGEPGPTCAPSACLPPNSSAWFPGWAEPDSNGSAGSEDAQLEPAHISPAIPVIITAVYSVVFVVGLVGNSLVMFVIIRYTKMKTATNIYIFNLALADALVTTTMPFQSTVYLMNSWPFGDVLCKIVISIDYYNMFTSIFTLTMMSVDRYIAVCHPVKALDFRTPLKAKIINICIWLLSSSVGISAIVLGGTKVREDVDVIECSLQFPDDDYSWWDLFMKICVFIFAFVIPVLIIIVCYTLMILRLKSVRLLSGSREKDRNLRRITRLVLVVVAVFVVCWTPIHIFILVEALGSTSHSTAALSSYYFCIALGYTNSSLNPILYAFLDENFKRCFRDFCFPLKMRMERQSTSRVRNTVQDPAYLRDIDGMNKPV

IC50 [1] | Kb [1] | IC50 [2] | Kb [2] | inhibition at 1 µM [1] | inhibition at 1 µM [2] | inhibition at 1 µM [3] | SMILES | OX1R, % Inh. @ 1 uM [1] | OX2R, % Inh. @ 1 uM [2] | KOR % Inh. @ 1 uM [3] | IC50 [3] | Ki [3]
11 nM | 2 nM | 275 nM | 38 nM | 81% | 67% | 37% | O=C(c1c(-c2ccccc2F)nn2ccccc12)N1CCC[C@H]1COc1ccc(C(F)(F)F)cn1 [Example 64] |  |  |  |  | 
53 nM | 11 nM |  |  | 64% | 41% | 11% | O=C(c1c(-c2ccccc2F)nc2ccccn12)N1CCC[C@H]1COc1ccc(C(F)(F)F)cn1 [Example 65] |  |  |  |  | 
13 nM | 3 nM | 20 nM | 4 nM | 100% | 74% | 27% | O=C(c1c(-c2ccccc2F)nn2ccccc12)N1CCC[C@H]1Cn1ccc(-c2ccccn2)n1 [Example 67] |  |  |  |  | 
47 nM | 10 nM | 170 nM | 30 nM | 82% | 64% | 48% | O=C(c1c(-c2ccccc2F)nn2ccccc12)N1CCC[C@H]1Cn1cc(-c2ccccn2)cn1 [Example 68] |  |  |  |  | 
9 nM | 2 nM |  |  | 82% | 48% | 37% | O=C(c1c(-c2ccccc2)nc2ccc(F)cn12)N1CCC[C@H]1Cn1ccc(-c2ccccn2)n1 [Example 73] |  |  |  |  | 
160 nM | 34 nM | 270 nM | 48 nM | 78% | 55% | 52% | O=C(c1c(-c2ccccc2)nc2cc(C(F)(F)F)ccn12)N1CCC[C@H]1Cn1ccc(-c2ccccn2)n1 [Example 78] |  |  |  |  | 
220 nM | 10 nM | 46 nM | 10 nM | 85% | 74% | 33% | O=C(c1c(-c2ccccc2F)nn2ccccc12)N1CCC[C@H]1Cn1cc(-c2ccc(F)cn2)cn1 [Example 82] |  |  |  |  | 
230 nM | 49 nM |  |  | 78% | 23% | 3% | O=C(c1c(-c2ccccc2)nn2c1COCC2)N1[C@@H]2CC[C@@H](C2)[C@H]1COc1ccc(C(F)(F)F)cn1 [Example 87] |  |  |  |  | 
37 nM | 8 nM | 360 nM | 63 nM | 97% | 66% | 22% | O=C(c1c(-c2ccccc2)nn2ccccc12)N1[C@@H]2CC[C@@H](C2)[C@H]1COc1ccc(C(F)(F)F)cn1 [Example 88] |  |  |  |  | 
80 nM | 2 nM |  |  | 98% | 46% | 11% | O=C(c1c(-c2ccccc2)nc2ccccn12)N1[C@@H]2CC[C@@H](C2)[C@H]1COc1ccc(C(F)(F)F)cn1 [Example 89] |  |  |  |  | 
14 nM | 3 nM | 43 nM | 8 nM | 100% | 79% | 21% | O=C(c1nn2ccccc2c1-c1ccccc1)N1CCC[C@H]1Cn1ccc(-c2ccc(F)cn2)n1 [Example 111] |  |  |  |  | 
650 nM | 140 nM |  |  | 60% | 38% | 51% | O=C(c1nn2ccccc2c1-c1ccccc1)N1CC[C@H]1Cn1ccc(-c2ccc(F)cn2)n1 [Example 115] |  |  |  |  | 
2 nM | 0.3 nM | 150 nM | 26 nM | 100% | 69% | 19% | O=C(c1nn2ccccc2c1-c1ccccc1)N1CCC[C@H]1Cc1nc(-c2ccc(F)cn2)no1 [Example 117] |  |  |  |  | 
5 nM | 1 nM |  |  | 100% | 45% | 35% | O=C(c1nc2ccccn2c1-c1ccccc1)N1CCC[C@H]1Cn1cc(-c2ccccn2)cn1 [Example 118] |  |  |  |  | 
5 nM | 1 nM |  |  | 100% | 37% | 6% | O=C(c1nc2ccccn2c1-c1ccccc1)N1CCC[C@H]1Cn1ccc(-c2ccccn2)n1 [Example 119] |  |  |  |  | 
46 nM | 10 nM | 300 nM | 52 nM | 80% | 63% | 22% | O=C(c1c(-c2ccccc2)nn2ccccc12)N1CCC[C@H]1Cc1nc(-c2ccc(F)cn2)no1 [Example 120] |  |  |  |  | 
10 nM | 2 nM |  |  | 99% | 51% | 15% | O=C(c1nc2ccccn2c1-c1ccccc1)N1CCC[C@H]1Cn1cc(-c2ccc(F)cn2)cn1 [Example 122] |  |  |  |  | 

SMILES | IC50 [1] | Kb [1] | IC50 [2] | Kb [2] | inhibition at 1 µM [1] | inhibition at 1 µM [2] | inhibition at 1 µM [3] | OX1R, % Inh. @ 1 uM [1] | OX2R, % Inh. @ 1 uM [2] | KOR % Inh. @ 1 uM [3] | IC50 [3] | Ki [3]
O=C(c1c(-c2ccccc2)nn2ccccc12)N1CCC[C@H]1Cn1ccc(-c2ccc(F)cc2)n1 [Example 59] | 4 nM | 0.7 nM | 11 nM | 2 nM |  |  |  | 91% | 99% | 56% | 470 nM | 260 nM
O=C(c1c(-c2ccccc2)nn2ccccc12)N1CCC[C@H]1Cn1ccc(-c2ccc(C(F)(F)F)cc2)n1 [Example 60] | 106 nM | 22 nM |  |  |  |  |  | 78% | 37% | 63% | 390 nM | 210 nM
O=C(c1c(-c2ccc(F)cc2)nc2ccccn12)N1CCC[C@H]1Cn1ccc(-c2ccc(F)cc2)n1 [Example 61] | 29 nM | 6 nM | 76 nM | 10 nM |  |  |  | 85% | 73% | 74% | 280 nM | 150 nM
O=C(c1c(-c2ccccc2F)nc2ccccn12)N1CCC[C@H]1Cn1ccc(-c2ccc(F)cc2)n1 [Example 62] | 6 nM | 1 nM | 26 nM | 4 nM |  |  |  | 96.96% | 85.23% | 79% | 200 nM | 110 nM
O=C(c1c(-c2ccccc2F)nn2ccccc12)N1CCC[C@H]1Cn1ccc(-c2ccc(F)cc2)n1 [Example 63] | 4 nM | 0.8 nM | 6 nM | 0.9 nM |  |  |  | 98% | 100% | 75% | 280000 nM | 
O=C(c1c(-c2ccccc2F)nn2c1COCC2)N1CCC[C@H]1Cn1ccc(-c2ccc(F)cc2)n1 [Example 66] | 33 nM | 7 nM | 131 nM | 18 nM |  |  |  | 84% | 68% | 77% | 220 nM | 120 nM
O=C(c1c(-c2ccccc2F)nn2ccccc12)N1CCC[C@H]1Cn1ccc(-c2ccc(F)cn2)n1 [Example 90] | 6 nM | 1 nM | 15 nM | 3 nM |  |  |  | 99% | 84% | 33% |  | 

Source: patent publication US20260070922A1, “PYRAZOLE AND IMIDAZOLE DERIVATIVES AS DUAL OREXIN AND KAPPA-OPIOID RECEPTORS MODULATORS COMPOSITION, METHODS FOR TREATING NEUROLOGICAL AND PSYCHIATRIC DISORDERS” (HAGER BIOSCIENCES, LLC, priority 2022, published 2026)
